# Earlier results in US11974997B2, “RORgamma modulators and uses thereof” (Genfit, priority 2017, dated 2024).
# Key:
# [1] = administered by injection; cited from earlier work
# [2] = administered by injection; cited from earlier work; remark: listed apart in the source
# [3] = cited from earlier work
smiles,measurement,setting,value
Cc1ccc([C@@H](NC(=O)Cc2ccc3oc([C@@H](O)c4c(C)noc4C)cc3c2)c2ccccc2)c(C)c1 [TMP778],efficacy in psoriasis model,[1],efficacious
CC(=O)Nc1nc(C)c(S(=O)(=O)Nc2ccc(C(O)(C(F)(F)F)C(F)(F)F)cc2)s1 [SR1001],efficacy in multiple sclerosis model,[2],efficacious
CCS(=O)(=O)c1ccc(CNC(=O)c2cnc3c(c2)CN(C[C@H]2CC[C@H](C(F)(F)F)CC2)[C@H]3C(C)C)nc1 [VTP-43742],reduction in the Psoriasis Area Severity Index (PASI) score relative to placebo,[3]; 350 mg dose group,24%
same,placebo-adjusted PASI score reduction,[3]; 700 mg dose group,30%
same,plasma IL-17 levels relative to placebo,[3]; patients with moderate to severe psoriasis,reduced
